ChEMBL document CHEMBL1201862, “PubChem BioAssay data set” (2004)
The source made the active and inactive calls.

Experiments:
Leucine aminopeptidase = molecular target: T1, Leucine aminopeptidase (Plasmodium falciparum 3D7, UniProt Q8IL11); assay: P. falciparum M17LAP inhibitors, primary screen, biochemical, fluorogenic H-Leu-NHMec substrate, 1536-well (AID 1619); format: functional
T1 sequence (Q8IL11 whole entry): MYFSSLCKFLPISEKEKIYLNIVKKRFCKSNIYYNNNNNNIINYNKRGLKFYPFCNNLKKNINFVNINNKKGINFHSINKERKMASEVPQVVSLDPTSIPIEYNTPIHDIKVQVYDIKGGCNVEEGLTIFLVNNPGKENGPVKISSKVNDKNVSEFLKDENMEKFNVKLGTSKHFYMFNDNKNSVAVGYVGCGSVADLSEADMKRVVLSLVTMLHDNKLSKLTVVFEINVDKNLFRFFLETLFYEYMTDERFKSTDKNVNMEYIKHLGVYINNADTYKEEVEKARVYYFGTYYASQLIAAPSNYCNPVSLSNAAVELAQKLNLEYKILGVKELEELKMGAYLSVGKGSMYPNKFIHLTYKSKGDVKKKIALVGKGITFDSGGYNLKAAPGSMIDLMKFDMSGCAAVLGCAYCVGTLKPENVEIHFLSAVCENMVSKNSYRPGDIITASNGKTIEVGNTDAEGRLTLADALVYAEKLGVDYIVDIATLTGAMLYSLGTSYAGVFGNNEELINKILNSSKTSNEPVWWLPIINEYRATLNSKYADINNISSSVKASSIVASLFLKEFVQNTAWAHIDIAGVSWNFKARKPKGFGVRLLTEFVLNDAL

Aspartyl aminopeptidase = molecular target: T2, Aspartyl aminopeptidase (Plasmodium falciparum 3D7, UniProt Q8I2J3); assay: Counterscreen for inhibitors of M1 and M17 aminopeptidases: QFRET-based biochemical high throughput dose response assay for inhibitors of the Plasmodium falciparum M18 Aspartyl Aminopeptidase (PFM18AAP). [Related PubChem assays: 1619 (Screening assay (M17LAP inhibitors).), 1445 (Screening assay (M1AAP inhibitors).)]
T2 sequence (Q8I2J3 whole entry): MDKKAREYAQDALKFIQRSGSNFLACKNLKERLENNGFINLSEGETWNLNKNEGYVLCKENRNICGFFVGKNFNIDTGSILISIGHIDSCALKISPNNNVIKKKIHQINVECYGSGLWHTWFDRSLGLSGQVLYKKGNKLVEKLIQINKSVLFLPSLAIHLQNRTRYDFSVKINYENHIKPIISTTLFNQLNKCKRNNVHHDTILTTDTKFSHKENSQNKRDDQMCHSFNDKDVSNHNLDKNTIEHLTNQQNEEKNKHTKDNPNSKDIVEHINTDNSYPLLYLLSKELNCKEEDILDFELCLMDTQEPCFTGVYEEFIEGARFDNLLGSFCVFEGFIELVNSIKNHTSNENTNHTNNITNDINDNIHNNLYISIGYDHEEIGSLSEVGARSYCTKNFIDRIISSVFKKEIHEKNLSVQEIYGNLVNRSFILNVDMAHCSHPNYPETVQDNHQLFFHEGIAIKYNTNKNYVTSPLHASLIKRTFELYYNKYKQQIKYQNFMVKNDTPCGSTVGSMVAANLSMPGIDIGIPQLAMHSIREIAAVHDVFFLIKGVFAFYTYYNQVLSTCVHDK

Procathepsin L = Procathepsin L (Homo sapiens, UniProt P07711); assay: cathepsin L inhibitors, dose response, counter-screen for M1/M17 aminopeptidase inhibitor project, biochemical, QFRET, 1536-well (AID 2214)
[1] = molecular target: T3, Short transient receptor potential channel 4 (Mus musculus, UniProt Q9QUQ5); assay: mouse TRPC4 channel inhibitors, dose response, cell-based, HEK293 TRPC4/mu-opioid, Fluo-4 calcium (AID 434942); format: functional;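 also: potency of inhibitors blocking the TRPC4 calcium response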
T3 sequence (Q9QUQ5 whole entry): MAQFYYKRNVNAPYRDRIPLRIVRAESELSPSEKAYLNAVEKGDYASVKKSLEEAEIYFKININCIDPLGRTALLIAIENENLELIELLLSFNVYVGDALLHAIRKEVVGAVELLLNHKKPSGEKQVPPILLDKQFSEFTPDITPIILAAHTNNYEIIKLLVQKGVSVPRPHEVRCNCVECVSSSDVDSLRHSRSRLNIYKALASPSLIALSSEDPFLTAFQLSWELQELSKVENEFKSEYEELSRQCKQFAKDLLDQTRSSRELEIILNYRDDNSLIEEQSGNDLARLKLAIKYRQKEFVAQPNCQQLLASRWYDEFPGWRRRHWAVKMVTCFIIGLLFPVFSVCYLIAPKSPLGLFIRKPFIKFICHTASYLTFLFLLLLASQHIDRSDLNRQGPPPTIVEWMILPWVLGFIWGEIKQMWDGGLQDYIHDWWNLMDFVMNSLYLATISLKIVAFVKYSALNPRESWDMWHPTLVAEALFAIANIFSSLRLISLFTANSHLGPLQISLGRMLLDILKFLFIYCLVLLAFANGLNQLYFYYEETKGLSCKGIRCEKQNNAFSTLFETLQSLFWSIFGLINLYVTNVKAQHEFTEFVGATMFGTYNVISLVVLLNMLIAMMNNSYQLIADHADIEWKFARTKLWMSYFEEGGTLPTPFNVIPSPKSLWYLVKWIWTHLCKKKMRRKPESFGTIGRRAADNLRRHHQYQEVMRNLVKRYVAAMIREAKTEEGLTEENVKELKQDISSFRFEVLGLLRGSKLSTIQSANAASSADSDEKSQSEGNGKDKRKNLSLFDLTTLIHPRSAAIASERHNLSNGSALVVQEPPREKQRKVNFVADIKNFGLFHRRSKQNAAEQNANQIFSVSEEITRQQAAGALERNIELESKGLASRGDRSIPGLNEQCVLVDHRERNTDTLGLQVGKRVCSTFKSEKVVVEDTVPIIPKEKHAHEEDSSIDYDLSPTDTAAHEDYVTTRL

Genome polyprotein = Genome polyprotein (dengue virus type 2, UniProt P29990); assay: Dengue-2 NS5 methyltransferase inhibitors, primary screen, biochemical, confirmation dose response (AID 588689); format: functional
Estrogen receptor = molecular target: T4, Estrogen receptor (Homo sapiens, UniProt P03372);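 also: potency for inhibiting coactivator peptide recruitment to the receptor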
T4 sequence (P03372 whole entry): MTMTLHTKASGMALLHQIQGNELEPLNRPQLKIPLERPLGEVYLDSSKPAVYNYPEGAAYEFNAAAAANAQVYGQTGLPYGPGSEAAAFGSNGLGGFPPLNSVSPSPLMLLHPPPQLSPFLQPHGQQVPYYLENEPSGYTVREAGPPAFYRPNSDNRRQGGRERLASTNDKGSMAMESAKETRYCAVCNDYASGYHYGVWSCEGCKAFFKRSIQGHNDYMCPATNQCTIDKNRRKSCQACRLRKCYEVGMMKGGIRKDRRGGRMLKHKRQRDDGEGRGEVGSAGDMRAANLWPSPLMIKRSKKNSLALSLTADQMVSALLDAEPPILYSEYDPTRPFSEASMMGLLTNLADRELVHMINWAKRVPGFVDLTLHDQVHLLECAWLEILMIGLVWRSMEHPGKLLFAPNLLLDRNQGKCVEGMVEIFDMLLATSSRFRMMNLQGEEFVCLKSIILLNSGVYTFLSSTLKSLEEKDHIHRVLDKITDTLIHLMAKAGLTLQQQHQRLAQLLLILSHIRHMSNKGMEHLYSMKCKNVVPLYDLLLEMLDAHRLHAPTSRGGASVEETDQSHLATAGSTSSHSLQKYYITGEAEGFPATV

Protein skinhead-1 = molecular target: T5, Protein skinhead-1 (Caenorhabditis elegans, UniProt P34707); format: functional
T5 sequence (P34707 whole entry): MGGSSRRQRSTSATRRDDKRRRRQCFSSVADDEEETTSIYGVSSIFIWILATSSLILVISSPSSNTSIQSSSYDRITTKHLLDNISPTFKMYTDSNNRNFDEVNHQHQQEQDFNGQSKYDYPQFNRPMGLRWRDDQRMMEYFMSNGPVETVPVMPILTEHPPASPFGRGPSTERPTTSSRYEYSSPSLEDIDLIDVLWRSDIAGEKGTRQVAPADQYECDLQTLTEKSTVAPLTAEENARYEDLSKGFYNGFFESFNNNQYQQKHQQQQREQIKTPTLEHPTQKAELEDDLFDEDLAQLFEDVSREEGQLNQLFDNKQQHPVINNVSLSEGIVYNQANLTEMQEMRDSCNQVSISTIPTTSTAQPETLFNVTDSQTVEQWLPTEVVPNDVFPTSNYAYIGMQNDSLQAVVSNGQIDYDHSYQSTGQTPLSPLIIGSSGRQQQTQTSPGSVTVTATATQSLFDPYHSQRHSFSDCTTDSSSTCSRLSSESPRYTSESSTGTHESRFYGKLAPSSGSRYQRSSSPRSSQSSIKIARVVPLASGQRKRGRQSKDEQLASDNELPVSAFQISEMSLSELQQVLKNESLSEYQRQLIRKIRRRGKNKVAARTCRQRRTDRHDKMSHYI

[2] = molecular target: T6, Corticotropin-releasing factor receptor 2/Corticotropin-releasing factor-binding protein (Homo sapiens, UniProt P24387+Q13324); assay: Dose Response confirmation of uHTS hits for small molecule antagonists of the CRF-binding protein and CRF-R2 receptor complex.; format: functional; settings: read-out: IC50_Mean
T6 sequence (Q13324 whole entry): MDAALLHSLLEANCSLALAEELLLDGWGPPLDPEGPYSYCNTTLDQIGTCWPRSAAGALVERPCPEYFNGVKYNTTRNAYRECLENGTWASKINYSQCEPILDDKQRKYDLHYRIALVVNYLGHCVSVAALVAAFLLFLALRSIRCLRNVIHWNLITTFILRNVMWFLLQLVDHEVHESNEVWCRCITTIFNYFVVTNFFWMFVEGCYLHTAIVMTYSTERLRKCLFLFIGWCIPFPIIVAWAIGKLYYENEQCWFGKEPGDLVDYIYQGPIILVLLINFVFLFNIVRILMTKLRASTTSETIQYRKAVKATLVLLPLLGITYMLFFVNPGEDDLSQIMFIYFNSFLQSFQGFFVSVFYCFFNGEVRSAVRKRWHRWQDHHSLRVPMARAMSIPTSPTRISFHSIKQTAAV
T6 sequence (P24387 whole entry): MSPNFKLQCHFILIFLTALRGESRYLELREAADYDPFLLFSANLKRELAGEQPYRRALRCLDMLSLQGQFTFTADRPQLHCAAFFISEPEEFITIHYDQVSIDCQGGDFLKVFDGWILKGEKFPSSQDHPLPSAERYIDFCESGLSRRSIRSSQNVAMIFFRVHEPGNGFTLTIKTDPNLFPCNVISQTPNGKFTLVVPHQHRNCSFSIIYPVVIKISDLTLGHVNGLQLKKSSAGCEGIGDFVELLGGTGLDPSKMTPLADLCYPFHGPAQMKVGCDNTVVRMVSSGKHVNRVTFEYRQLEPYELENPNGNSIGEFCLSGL

[3] = molecular target: T6, Corticotropin-releasing factor receptor 2/Corticotropin-releasing factor-binding protein; assay: activators of CRF receptor 2 with binding protein – uHTS hits, confirmation (AID 602473); format: functional; settings: read-out: EC50_Mean
[4] = CRF-BP/CRF-R2 complex antagonists, dose response, cell-based, uHTS hits, 384-well (AID 651639); format: functional, Homo sapiens; settings: read-out: IC50_Mean
Aminopeptidase N = molecular target: T7, Aminopeptidase N (Plasmodium falciparum FcB1/Columbia, UniProt O96935); assay: P. falciparum M1AAP inhibitors, biochemical, fluorogenic H-Leu-NHMec substrate, 1536-well (AID 1445); parameters: species or system Plasmodium falciparum 3D7, 3D7
T7 sequence (O96935 whole entry): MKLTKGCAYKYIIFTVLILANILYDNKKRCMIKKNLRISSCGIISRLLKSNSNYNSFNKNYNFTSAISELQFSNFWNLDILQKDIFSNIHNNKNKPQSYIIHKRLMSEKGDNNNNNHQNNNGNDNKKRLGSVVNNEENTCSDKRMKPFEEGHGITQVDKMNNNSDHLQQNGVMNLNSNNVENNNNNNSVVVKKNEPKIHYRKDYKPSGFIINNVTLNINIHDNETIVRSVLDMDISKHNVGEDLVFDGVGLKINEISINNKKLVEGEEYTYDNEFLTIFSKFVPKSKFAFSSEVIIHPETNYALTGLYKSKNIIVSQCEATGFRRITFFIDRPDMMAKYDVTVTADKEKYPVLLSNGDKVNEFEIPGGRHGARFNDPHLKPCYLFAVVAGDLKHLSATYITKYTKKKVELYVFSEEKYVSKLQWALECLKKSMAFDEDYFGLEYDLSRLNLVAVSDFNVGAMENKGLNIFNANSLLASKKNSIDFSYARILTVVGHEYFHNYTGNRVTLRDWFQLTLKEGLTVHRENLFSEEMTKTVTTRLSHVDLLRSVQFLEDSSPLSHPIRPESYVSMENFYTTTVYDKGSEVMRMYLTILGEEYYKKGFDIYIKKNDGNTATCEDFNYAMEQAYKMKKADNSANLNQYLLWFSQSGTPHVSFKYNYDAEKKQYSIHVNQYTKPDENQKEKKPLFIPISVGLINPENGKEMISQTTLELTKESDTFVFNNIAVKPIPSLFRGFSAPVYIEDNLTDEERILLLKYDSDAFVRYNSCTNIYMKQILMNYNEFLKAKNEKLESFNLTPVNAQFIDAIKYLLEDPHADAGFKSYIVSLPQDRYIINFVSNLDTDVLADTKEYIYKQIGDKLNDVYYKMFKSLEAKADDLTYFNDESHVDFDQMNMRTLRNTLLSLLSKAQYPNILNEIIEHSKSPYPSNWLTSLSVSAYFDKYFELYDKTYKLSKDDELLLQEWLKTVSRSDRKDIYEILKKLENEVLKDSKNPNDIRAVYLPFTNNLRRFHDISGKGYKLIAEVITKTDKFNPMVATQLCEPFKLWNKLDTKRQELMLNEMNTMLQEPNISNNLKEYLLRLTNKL

Estrogen receptor beta = Estrogen receptor beta (Homo sapiens, UniProt Q92731);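 also: recombinant ER-beta bound to coactivator SRC1 peptide in presence of estradiol agonist; inhibitors block coactivator peptide binding and lower the FRET signal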
Estrogen receptor beta, sequence (Q92731 whole entry): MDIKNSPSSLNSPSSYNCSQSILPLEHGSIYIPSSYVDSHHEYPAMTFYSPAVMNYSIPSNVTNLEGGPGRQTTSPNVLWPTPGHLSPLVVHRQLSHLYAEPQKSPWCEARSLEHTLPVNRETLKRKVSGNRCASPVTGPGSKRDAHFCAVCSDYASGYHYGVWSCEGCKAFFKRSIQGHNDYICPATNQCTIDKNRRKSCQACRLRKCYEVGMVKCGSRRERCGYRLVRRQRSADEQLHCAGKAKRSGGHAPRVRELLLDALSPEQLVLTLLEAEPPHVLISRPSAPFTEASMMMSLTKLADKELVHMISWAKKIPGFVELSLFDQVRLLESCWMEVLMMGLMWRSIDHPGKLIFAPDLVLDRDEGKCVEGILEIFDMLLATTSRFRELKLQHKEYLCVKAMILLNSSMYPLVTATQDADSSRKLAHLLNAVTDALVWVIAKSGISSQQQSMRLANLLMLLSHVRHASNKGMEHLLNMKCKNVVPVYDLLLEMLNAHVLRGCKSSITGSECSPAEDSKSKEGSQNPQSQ

Procathepsin L, sequence (P07711 whole entry): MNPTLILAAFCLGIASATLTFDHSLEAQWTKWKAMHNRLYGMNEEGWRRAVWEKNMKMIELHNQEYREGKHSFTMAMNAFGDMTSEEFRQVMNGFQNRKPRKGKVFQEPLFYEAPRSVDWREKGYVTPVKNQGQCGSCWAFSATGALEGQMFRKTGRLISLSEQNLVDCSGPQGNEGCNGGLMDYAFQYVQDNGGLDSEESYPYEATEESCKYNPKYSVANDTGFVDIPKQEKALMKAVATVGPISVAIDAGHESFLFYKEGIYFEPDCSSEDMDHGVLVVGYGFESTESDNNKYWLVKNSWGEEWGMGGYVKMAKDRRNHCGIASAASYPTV
Genome polyprotein, sequence (P29990 2492-3391 limits assumed): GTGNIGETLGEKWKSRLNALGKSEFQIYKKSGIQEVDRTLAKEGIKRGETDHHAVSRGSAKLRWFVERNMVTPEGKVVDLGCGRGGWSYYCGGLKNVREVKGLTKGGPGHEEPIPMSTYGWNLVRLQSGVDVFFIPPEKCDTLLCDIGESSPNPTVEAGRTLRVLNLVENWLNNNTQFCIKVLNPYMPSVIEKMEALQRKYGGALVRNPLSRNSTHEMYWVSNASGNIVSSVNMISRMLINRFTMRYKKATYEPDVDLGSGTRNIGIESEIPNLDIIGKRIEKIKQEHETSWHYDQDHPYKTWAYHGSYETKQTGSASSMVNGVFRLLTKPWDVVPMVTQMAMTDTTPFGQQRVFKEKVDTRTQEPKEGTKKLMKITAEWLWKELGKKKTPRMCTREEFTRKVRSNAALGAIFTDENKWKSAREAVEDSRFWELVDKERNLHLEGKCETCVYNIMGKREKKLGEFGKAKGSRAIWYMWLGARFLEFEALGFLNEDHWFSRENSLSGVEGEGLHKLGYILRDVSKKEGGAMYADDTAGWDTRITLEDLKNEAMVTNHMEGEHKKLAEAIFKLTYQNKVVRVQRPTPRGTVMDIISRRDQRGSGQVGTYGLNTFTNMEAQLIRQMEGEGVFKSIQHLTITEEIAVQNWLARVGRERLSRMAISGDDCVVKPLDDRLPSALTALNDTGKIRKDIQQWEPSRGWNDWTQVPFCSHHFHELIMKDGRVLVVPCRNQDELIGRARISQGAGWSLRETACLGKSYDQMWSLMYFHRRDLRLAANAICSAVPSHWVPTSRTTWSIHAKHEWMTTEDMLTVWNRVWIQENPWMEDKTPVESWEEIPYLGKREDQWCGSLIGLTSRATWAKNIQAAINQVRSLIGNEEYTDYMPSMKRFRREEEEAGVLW

Row | IC50 (Leucine aminopeptidase) | IC50 (Aspartyl aminopeptidase) | IC50 (Procathepsin L) | IC50 (Estrogen receptor) | SMILES | other results
1 | 5.96 µM (active) | > 73.5 µM (not active) | > 59.6 µM (not active) |  | CCOC(=O)c1c(-c2cccc(C)c2)csc1NC(=O)C1CC=CCC1C(=O)O (centres undefined) | EC50 [1]: 7.5 µM (active); IC50 (Genome polyprotein): 61 µM (active)
2 |  |  |  | > 50 µM (not active) | Cc1cc(Cl)cc(C)c1OCCCCN1CCOCC1 | IC50 (Protein skinhead-1): 38.9 µM (active)
3 | 7.15 µM (active) | > 73.5 µM (not active) | > 59.6 µM (not active) |  | Cc1cc(O)nc(SCC(=O)Nc2cccc(C(F)(F)F)c2)n1 | 
4 | < 1 µM (active) | > 73.5 µM (not active) | 59.3 µM (not active) |  | COc1cc(NC(=O)CSc2nc3c(C)ccc(C)c3cc2C)c(C(=O)O)cc1OC | IC50 [2]: 10.1 µM (active); EC50 [3]: > 53 µM (inactive); IC50 [4]: > 20 µM (inactive)
5 |  |  |  |  | CCOC(=O)c1c(NC(=O)CSc2ccccc2C(=O)O)sc(C)c1C | IC50 (Aminopeptidase N): 52.3 µM (active)
6 |  |  |  | 26.5 µM (active) | Cc1ccc(C(=O)CSC2=C(C#N)C(c3ccco3)CC(=O)N2)c(C)c1 (centres undefined) | IC50 (Estrogen receptor beta): 16.1 µM (active)
